Assay results reported in PubChem BioAssay AID2812 (Southern Research Specialized Biocontainment Screening …, 2010).
Calls of active or inactive are those of the source. The rule behind the calls is not given here.

Tested on: MAGI host cells cytotoxicity, % cell control, 5% serum
Test: MAGI cell viability under compound exposure – 5% and 10% serum, set 2, cytotoxicity control for HIV-1 antiviral project, dose response (AID 2812)
[1] = MAGI host cells cytotoxicity, % cell control, 10% serum

Row | SMILES | TC50 | TC50 [1] [µM]
1 | CC(C)S(=O)(=O)C1=NSC2=NC(=O)/C(=C\c3ccc(-c4ccccc4)o3)C(=N)N21 | 74 µM | > 100
2 | O=C(O)c1cc(NN=Cc2ccc(-c3ccccc3)cc2)ccc1Cl | > 100 µM (inactive) | > 100
3 | CS(=O)(=O)C1=NSC2=NC(=O)/C(=C\c3cccn3-c3ccc(Cl)cc3)C(=N)N21 | > 100 µM (inactive) | > 100
4 | CCS(=O)(=O)C1=NSC2=NC(=O)/C(=C\c3ccc(OS(=O)(=O)c4ccccc4)cc3)C(=N)N21 | > 100 µM (inactive) | > 100
5 | Cc1ccc(-n2c(O)c(C=Nc3ccccc3-c3n[nH]c(=S)[nH]c3=O)c3ccccc3c2=O)c(C)c1 | – | > 100
6 | CS(=O)(=O)C1=NSC2=NC(=O)/C(=C\c3ccc(OS(=O)(=O)c4ccccc4)cc3)C(=N)N21 | > 100 µM (inactive) | > 100
7 | O=C1NC(=S)N(c2ccc(F)cc2)C(=O)/C1=C/c1ccco1 | – | > 100
8 | COc1ccc(C(=O)Oc2ccc(C=NNc3ccc(Cl)c(C(=O)O)c3)cc2OC)cc1 | > 100 µM (inactive) | > 100
9 | CC1(C)CC(=O)C2=C(C1)c1c(ccc3ccccc13)NC2c1cc([N+](=O)[O-])cc([N+](=O)[O-])c1O (stereo not given) | 58.6 µM | > 100
10 | Cc1ccc(-n2cccc2/C=C2/C(=N)N3C(=NC2=O)SN=C3S(C)(=O)=O)cc1Cl | > 100 µM (inactive) | > 100
11 | COc1cc(C=NNc2ccc(Cl)c(C(=O)O)c2)ccc1OC(=O)c1ccc(F)cc1 | > 100 µM (inactive) | > 100
12 | Cc1cc(C)cc(-n2cccc2/C=C2/C(=N)N3C(=NC2=O)SN=C3S(C)(=O)=O)c1 | 79.5 µM | > 100
13 | Cc1ccc(S(=O)(=O)Oc2ccc(/C=C3/C(=N)N4C(=NC3=O)SN=C4S(C)(=O)=O)cc2)cc1 | > 100 µM (inactive) | > 100
14 | COc1ccccc1NS(=O)(=O)c1cccc(-n2c(O)c(C=Nc3ccccc3C(=O)O)c3ccccc3c2=O)c1 | 93.7 µM | > 100
15 | O=c1c(=Cc2cc([N+](=O)[O-])cc([N+](=O)[O-])c2O)sc2nc3ccccc3n12 | > 100 µM (inactive) | > 100
16 | COc1ccc(OC)c(N2C(=O)/C(=C/c3ccco3)C(=O)NC2=S)c1 | – | > 100
17 | COc1cc(C=NNc2ccc(Cl)c(C(=O)O)c2)ccc1OC(=O)c1ccccc1F | > 100 µM (inactive) | > 100
18 | O=C(O)c1ccccc1C(=O)N(Cc1cccc(Oc2ccc(Cl)cc2)c1)[C@H]1CCCc2ccccc21 | 56.4 µM | > 100
19 | CC(C)S(=O)(=O)C1=NSC2=NC(=O)/C(=C\c3ccc(-c4cccc(C(=O)O)c4)o3)C(=N)N21 | > 100 µM (inactive) | > 100
